Data as given in paper PMC7413254 (Nature Communications, 2020).

Columns and labels:
Assay type in all cases: cell-based
PfCRT^Ecu1110 [1] = molecular target: T1, PfCRT^Ecu1110 (Plasmodium falciparum, UniProt Q9N623, A220S/I356L/K76T/N326D); experiment: cell-based; conditions: for PfCRT-mediated [3H]CQ transport, trans-stimulation (% PfCRTEcu1110 control): PfCRTEcu1110 oocytes, normalised to oocyte type control; for [3H]CQ transport (% PfCRTDd2 control), trans-stimulation, PfCRTEcu1110: PfCRT-mediated component (background subtracted), sheet title says normalised to PfCRTDd2 control, mean ± SEM, SEM
T1 sequence (Q9N623 whole entry A220S/I356L/K76T/N326D): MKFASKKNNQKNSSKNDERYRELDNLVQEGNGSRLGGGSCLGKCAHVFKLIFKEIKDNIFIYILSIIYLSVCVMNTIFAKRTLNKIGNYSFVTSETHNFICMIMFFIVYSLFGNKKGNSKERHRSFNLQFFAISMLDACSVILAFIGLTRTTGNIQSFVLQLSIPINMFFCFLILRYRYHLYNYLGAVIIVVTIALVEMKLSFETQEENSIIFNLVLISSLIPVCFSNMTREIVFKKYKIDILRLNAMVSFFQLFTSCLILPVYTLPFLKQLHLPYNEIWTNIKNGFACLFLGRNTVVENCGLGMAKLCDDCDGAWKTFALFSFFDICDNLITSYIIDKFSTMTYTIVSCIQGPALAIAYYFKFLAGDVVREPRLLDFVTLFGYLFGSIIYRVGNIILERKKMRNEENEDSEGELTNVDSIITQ
Procedure, shortened: (§1)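 Oocytes (ten per treatment, ≥4 independent frogs/days) were preloaded by injecting VF-6 in 25 nL ND96 at pH 5.0, 5.5, 6.0 or 7.0, or Na^+-free choline buffer, then uptake run 1.5 h, 27.5 °C, ND96 pH 5.5 by default. Internal concentrations assumed ~400 nL oocyte volume.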

PfCRT^3D7 = PfCRT^3D7 (Plasmodium falciparum, UniProt Q8IBZ9); experiment: cell-based; conditions: PfCRT3D7 oocytes, normalised to oocyte type control
Chain of PfCRT^3D7 (Q8IBZ9 59-398): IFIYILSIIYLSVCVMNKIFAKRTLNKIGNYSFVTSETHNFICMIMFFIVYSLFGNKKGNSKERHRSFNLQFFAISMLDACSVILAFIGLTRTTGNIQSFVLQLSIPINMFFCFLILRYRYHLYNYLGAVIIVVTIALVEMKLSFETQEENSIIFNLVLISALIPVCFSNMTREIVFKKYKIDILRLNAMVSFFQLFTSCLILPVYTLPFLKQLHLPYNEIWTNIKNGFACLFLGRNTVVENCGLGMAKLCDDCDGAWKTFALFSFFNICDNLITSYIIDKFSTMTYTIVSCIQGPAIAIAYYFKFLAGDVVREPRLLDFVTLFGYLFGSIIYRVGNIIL
Procedure, shortened: as §1

PfCRT^Dd2 [2] = molecular target: T2, PfCRT^Dd2 (Plasmodium falciparum, UniProt Q9N623, A220S/I356T/K76T/M74I/N326S/N75E/Q271E/R371I); experiment: cell-based; conditions: for PfCRT-mediated [3H]CQ transport, trans-stimulation (% PfCRTDd2 control): PfCRTDd2 oocytes, normalised to oocyte type control; for [3H]CQ transport (% PfCRTDd2 control), trans-stimulation, PfCRTDd2: PfCRT-mediated component (background subtracted), mean ± SEM, SEM
T2 sequence (Q9N623 whole entry A220S/I356T/K76T/M74I/N326S/N75E/Q271E/R371I): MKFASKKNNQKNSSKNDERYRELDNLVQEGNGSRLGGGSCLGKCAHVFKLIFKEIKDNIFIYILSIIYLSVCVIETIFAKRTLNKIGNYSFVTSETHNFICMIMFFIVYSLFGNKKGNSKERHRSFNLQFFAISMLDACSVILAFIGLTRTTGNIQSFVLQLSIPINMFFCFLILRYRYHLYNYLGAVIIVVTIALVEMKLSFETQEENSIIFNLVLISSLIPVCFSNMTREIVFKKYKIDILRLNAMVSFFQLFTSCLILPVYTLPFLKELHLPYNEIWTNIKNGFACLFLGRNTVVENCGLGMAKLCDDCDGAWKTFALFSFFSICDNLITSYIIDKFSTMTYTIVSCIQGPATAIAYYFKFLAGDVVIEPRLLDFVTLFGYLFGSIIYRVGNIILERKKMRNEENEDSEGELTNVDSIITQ
Procedure, shortened: as §1

PfCRT^Ecu1110 [3] = molecular target: T1, PfCRT^Ecu1110; experiment: [3H]CQ uptake into Xenopus oocytes, cis-inhibition by unlabelled solute; conditions: for PfCRT-mediated [3H]CQ transport, cis-inhibition (% PfCRTEcu1110 control): PfCRTEcu1110 oocytes, background [3H]CQ accumulation subtracted, normalised to oocyte type control; for [3H]CQ transport (% PfCRTEcu1110 control), cis-inhibition, PfCRTEcu1110: PfCRT-mediated component (background subtracted), sheet title says normalised to PfCRTDd2 control, mean ± SEM, SEM
Procedure, shortened: (§2)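 Using pH 5.5 ND96 at 27.5 °C, uptake is followed for 1.5 h, stopped with ice-cold buffer, and quantified as accumulated radioactivity per oocyte after SDS lysis.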

PfCRT^Dd2 [4] = molecular target: T2, PfCRT^Dd2; experiment: as above; conditions: PfCRTDd2 oocytes, background [3H]CQ accumulation subtracted, normalised to oocyte type control
Procedure, shortened: as §2

[5] = [test solute]i = 5 mM (intracellular)
[6] = [test solute]i = 45 mM (intracellular; 30 mM for some solutes due to solubility)
[7] = [test solute]i = 5 mM (injected)
[8] = [test solute]i = 45 mM (30 mM for some solutes due to solubility)

Substance	PfCRT-mediated [3H]CQ transport, trans-stimulation (% PfCRTEcu1110 control) (PfCRT^Ecu1110 [1]; [5])	PfCRT-mediated [3H]CQ transport, trans-stimulation (% PfCRTEcu1110 control) (PfCRT^Ecu1110 [1]; [6])	[3H]CQ transport (% PfCRTDd2 control), trans-stimulation, PfCRTEcu1110 (PfCRT^Ecu1110 [1]; [7])	[3H]CQ transport (% PfCRTDd2 control), trans-stimulation, PfCRTEcu1110 (PfCRT^Ecu1110 [1]; [8])	PfCRT-mediated [3H]CQ transport, trans-stimulation (% PfCRT3D7 control) (PfCRT^3D7; [5])	PfCRT-mediated [3H]CQ transport, trans-stimulation (% PfCRT3D7 control) (PfCRT^3D7; [6])	PfCRT-mediated [3H]CQ transport, trans-stimulation (% PfCRTDd2 control) (PfCRT^Dd2 [2]; [5])	PfCRT-mediated [3H]CQ transport, trans-stimulation (% PfCRTDd2 control) (PfCRT^Dd2 [2]; [6])	[3H]CQ transport (% PfCRTDd2 control), trans-stimulation, PfCRTDd2 (PfCRT^Dd2 [2]; [7])	[3H]CQ transport (% PfCRTDd2 control), trans-stimulation, PfCRTDd2 (PfCRT^Dd2 [2]; [8])	PfCRT-mediated [3H]CQ transport, cis-inhibition (% PfCRTEcu1110 control) (PfCRT^Ecu1110 [3]; [test solute] = 0.5 mM)	PfCRT-mediated [3H]CQ transport, cis-inhibition (% PfCRTEcu1110 control) (PfCRT^Ecu1110 [3]; [test solute] = 1 mM)	PfCRT-mediated [3H]CQ transport, cis-inhibition (% PfCRTEcu1110 control) (PfCRT^Ecu1110 [3]; [test solute] = 2 mM)	[3H]CQ transport (% PfCRTEcu1110 control), cis-inhibition, PfCRTEcu1110 (PfCRT^Ecu1110 [3]; [test solute] = 1 mM)	[3H]CQ transport (% PfCRTEcu1110 control), cis-inhibition, PfCRTEcu1110 (PfCRT^Ecu1110 [3]; [test solute] = 2 mM)	PfCRT-mediated [3H]CQ transport, cis-inhibition (% PfCRTDd2 control) (PfCRT^Dd2 [4]; [test solute] = 0.5 mM)	PfCRT-mediated [3H]CQ transport, cis-inhibition (% PfCRTDd2 control) (PfCRT^Dd2 [4]; [test solute] = 1 mM)	PfCRT-mediated [3H]CQ transport, cis-inhibition (% PfCRTDd2 control) (PfCRT^Dd2 [4]; [test solute] = 2 mM)	[3H]CQ transport (% PfCRTEcu1110 control), cis-inhibition, PfCRTEcu1110 (PfCRT^Ecu1110 [3]; [test solute] = 0.5 mM)
VDEVGG [VG-6]	128 ± 4.2 % PfCRTEcu1110 control	139 ± 4.6 % PfCRTEcu1110 control	39 ± 1.5 % PfCRTEcu1110 control	42 ± 2.6 % PfCRTEcu1110 control	140 ± 4.4 % PfCRT3D7 control	190 ± 3.6 % PfCRT3D7 control	102 ± 4.7 % PfCRTDd2 control	112 ± 0.9 % PfCRTDd2 control	102 ± 4.7 % PfCRTDd2 control	112 ± 0.9 % PfCRTDd2 control	61 ± 3.5 % PfCRTEcu1110 control	51 ± 2.6 % PfCRTEcu1110 control	39 ± 1.4 % PfCRTEcu1110 control	16 ± 0.1 % PfCRTEcu1110 control	12 ± 0.02 % PfCRTEcu1110 control	55 ± 1.8 % PfCRTDd2 control	44 ± 2.7 % PfCRTDd2 control	38 ± 1.3 % PfCRTDd2 control	–
VDPVNFK [VK-7]	132 ± 3.5 % PfCRTEcu1110 control	138 ± 4.1 % PfCRTEcu1110 control	40 ± 2.1 % PfCRTEcu1110 control	42 ± 2.4 % PfCRTEcu1110 control	128 ± 3.2 % PfCRT3D7 control	179 ± 5.3 % PfCRT3D7 control	100 ± 4.2 % PfCRTDd2 control	98 ± 2.2 % PfCRTDd2 control	100 ± 4.2 % PfCRTDd2 control	98 ± 2.2 % PfCRTDd2 control	40 ± 2.5 % PfCRTEcu1110 control	27 ± 4.1 % PfCRTEcu1110 control	22 ± 2.4 % PfCRTEcu1110 control	9.0 ± 0.02 % PfCRTEcu1110 control	7.0 ± 0.04 % PfCRTEcu1110 control	17 ± 0.3 % PfCRTDd2 control	9 ± 0.1 % PfCRTDd2 control	3.2 ± 0.1 % PfCRTDd2 control	13 ± 0.6 % PfCRTEcu1110 control
VHLT [VT-4]	99 ± 3.2 % PfCRTEcu1110 control	97 ± 3.6 % PfCRTEcu1110 control	30 ± 1.3 % PfCRTEcu1110 control	29 ± 1.5 % PfCRTEcu1110 control	97 ± 3.2 % PfCRT3D7 control	95 ± 4.7 % PfCRT3D7 control	97 ± 4.6 % PfCRTDd2 control	98 ± 3.2 % PfCRTDd2 control	97 ± 4.6 % PfCRTDd2 control	98 ± 3.2 % PfCRTDd2 control	56 ± 4.1 % PfCRTEcu1110 control	39 ± 4.1 % PfCRTEcu1110 control	27 ± 1.4 % PfCRTEcu1110 control	–	9.0 ± 0.2 % PfCRTEcu1110 control	51 ± 2.0 % PfCRTDd2 control	39 ± 2.8 % PfCRTDd2 control	16 ± 0.4 % PfCRTDd2 control	18 ± 0.3 % PfCRTEcu1110 control
VHLTPEEK [VK-8]	98 ± 2.9 % PfCRTEcu1110 control	100 ± 4.2 % PfCRTEcu1110 control	–	–	132 ± 3.2 % PfCRT3D7 control	166 ± 4.2 % PfCRT3D7 control	100 ± 3.4 % PfCRTDd2 control	98 ± 2.3 % PfCRTDd2 control	–	–	64 ± 2.7 % PfCRTEcu1110 control	49 ± 3.1 % PfCRTEcu1110 control	41 ± 2.3 % PfCRTEcu1110 control	–	–	69 ± 3.1 % PfCRTDd2 control	63 ± 5.2 % PfCRTDd2 control	25 ± 0.3 % PfCRTDd2 control	–
VLSPAD [VD-6]	98 ± 3.2 % PfCRTEcu1110 control	98 ± 3.3 % PfCRTEcu1110 control	30 ± 1.3 % PfCRTEcu1110 control	30 ± 1.4 % PfCRTEcu1110 control	97 ± 4.2 % PfCRT3D7 control	95 ± 4.1 % PfCRT3D7 control	101 ± 3.6 % PfCRTDd2 control	98 ± 3.3 % PfCRTDd2 control	101 ± 3.6 % PfCRTDd2 control	98 ± 3.3 % PfCRTDd2 control	58 ± 3.5 % PfCRTEcu1110 control	48 ± 3.2 % PfCRTEcu1110 control	39 ± 0.4 % PfCRTEcu1110 control	–	12 ± 0.01 % PfCRTEcu1110 control	47 ± 1.8 % PfCRTDd2 control	28 ± 1.1 % PfCRTDd2 control	29 ± 1.0 % PfCRTDd2 control	–
